Results reported in PMC10771590, “Pathway crosstalk between the central metabolic and heme biosynthetic pathways in Phanerochaete chrysosporium” (Applied Microbiology and Biotechnology, 2024).
pKi: −log10 of the molar value.

What was measured:
P. chrysosporium = test: Growth of P. chrysosporium with exogenously added hemin; type: cell-based, Phanerochaete chrysosporium
Protocol: P. chrysosporium (ATCC 34541) was grown from conidial inocula at 37 °C in a stationary culture (20-ml medium in a 200-ml Erlenmeyer flask). The medium (pH 4.5) used in this study was a ligninolytic medium as previously described (Shimizu et al. [2005]; Kirk et al. [1978]), with 1% glucose as carbon source and 1.2 mM ammonium tartrate as nitrogen source.
Taking these observations together, a metabolic “pathway crosstalk” is proposed and summarized in Scheme 1. In P. chrysosporium, heme plays an important role as a prosthetic molecule for many cellular processes, in particular, ligninolytic enzymes. Upon addition of exogenous aromatic compounds, fungal cellular metabolism was dramatically shifted from basic energy metabolism to “defensive” or “productive” metabolism. Glucose uptake and consumption and NADPH and succinyl-CoA production were activated in response to exogenous aromatic compounds. Furthermore, the heme synthetic pathway was activated (Shimizu et al. [2005]). Immediate activation of the heme synthesis against aromatics is crucial for the fungus to produce aromatics-degrading enzymes. On the other hand, free heme is highly toxic to the cell. Thus, metabolic overflow of heme biosynthesis causes highly stressful conditions in the mitochondria. The TCA cycle, including CS, is located in the mitochondrial matrix space (Mcalister-Henn and Small [1997]). […]

[1] = system: Glyceraldehyde 3-phosphate dehydrogenase (GAPDH) of Plasmodium falciparum; design: method as in Campanale et al. 2003; conditions: ref Campanale et al. 2003; cited from earlier work
PcGAPDH = target: T1, PcGAPDH (Phanerodontia chrysosporium, UniProt Q01982); test: Peroxidative activity of GAPDH–hemin complex (TMB oxidation); type: biochemical, Phanerochaete chrysosporium; conditions: on binding PcGAPDH in vitro, 1:1 or 1:2 PcGAPDH:hemin, 100 μM H2O2
T1 construct: 6xHis-tag (pET-30) (cleaved yes); made in house; host or cells: E. coli BL21(DE3)pLysS
Protocol: Peroxidative activity of the PcGAPDH–hemin complex was investigated by using 3, 3′, 5, 5′-tetramethylbenzidine (TMB) as oxidation substrate. Before the assay, 100 μM PcGAPDH was incubated with hemin at 1:1 or 1:2 stoichiometry for 30 min at 4 °C in the dark. Reaction mixtures (1 ml) contained 40 mM Tris–HCl (pH 7.5), 125 μM TMB, 100 μM hydrogen peroxide, and 1 μM PcGAPDH with hemin at 1:1 or 1:2 stoichiometry. As a control, 1 or 2 μM hemin without PcGAPDH was used. The reaction was monitored at 655 nm upon the formation of benzidine cation radical for 1 min.
Fig. 6 Peroxidative activity of GAPDH–hemin complex. Peroxidative activity of GAPDH–hemin complex was investigated by using TMB as an oxidation substrate. Reaction mixtures contained 40 mM Tris/HCl (pH 7.5), 125 μM TMB, 100 μM hydrogen peroxide, 1 μM PcGAPDH with hemin at 1:1 (a) or 1:2 (b) stoichiometry. As a control, 1 (c) or 2 (d) μM hemin without PcGAPDH was used. The reaction was monitored at 655 nm for 1 min

[2] = target: T2, recombinant PcGAPDH (rPcGAPDH) (Phanerodontia chrysosporium, UniProt Q01982); test: GAPDH assay and steady-state kinetic analysis; type: biochemical, Phanerochaete chrysosporium; conditions: rPcGAPDH
T2 construct: 6xHis-tag (pET-30) (cleaved yes); made in house; host or cells: E. coli BL21(DE3)pLysS
Protocol: GAPDH assay was performed as previously described (Campanale et al. [2003]). For steady-state kinetic analysis, the reaction mixture (1 ml) contained 40 mM phosphate (pH 7.6), 5.2 μg recombinant PcGAPDH (rPcGAPDH), 40 mM triethanolamine, 5 mM NAD^+, and 0.6–2 mM glyceraldehyde 3-phosphate (GAP3). Reactions were monitored by the increase in absorbance at 340 nm (ε 6220 M^–1 cm^–1) for 1 min, and initial velocities were determined. Inhibitory experiments were done in the presence of 0–2.5 μM hemin. To examine the effect of hemin on GAPDH kinetics, PcGAPDH was incubated with either buffer (control) or hemin for 5 min prior to initiating the reaction. Kinetic parameters were determined from Lineweaver–Burk plots, and Ki values were determined from the secondary plot of each slope of the Lineweaver–Burk plots. Immediately prior to use, hemin was dissolved at 10 mM in 0.1 M NaOH and diluted with 40 mM Tris–HCl (pH 7.5).
Fig. 2 Heterologous expression of PcGAPDH and inhibitory effect of hemin on GAPDH reaction. A M, molecular weight marker; lane 1, rPcGAPDH-His-tag; lane 2, His-tag-cleaved rPcGAPDH. B Reaction mixtures containing 2.5 nM rPcGAPDH, 40 mM phosphate (pH 7.6), 40 mM triethanolamine, 5 mM NAD^+, and 0.6–2 mM GAP3. […] Inset: secondary plots of each slope of Lineweaver–Burk plots against the concentration of hemin for determining inhibition constants. C Reaction mixtures containing 2.5 nM rPcGAPDH, 40 mM phosphate (pH 7.6), 40 mM triethanolamine, 5 mM NAD^+, and 0.6 mM GAP3. Reactions were started by adding substrates followed by 5-min incubation with either buffer or 1 μM inhibitor (hemin or protoporphyrin IX, PPIX). […] All experiments were performed in triplicate. Bars indicated as mean values ± standard deviation (error bars)

T2 sequence (Q01982 whole entry): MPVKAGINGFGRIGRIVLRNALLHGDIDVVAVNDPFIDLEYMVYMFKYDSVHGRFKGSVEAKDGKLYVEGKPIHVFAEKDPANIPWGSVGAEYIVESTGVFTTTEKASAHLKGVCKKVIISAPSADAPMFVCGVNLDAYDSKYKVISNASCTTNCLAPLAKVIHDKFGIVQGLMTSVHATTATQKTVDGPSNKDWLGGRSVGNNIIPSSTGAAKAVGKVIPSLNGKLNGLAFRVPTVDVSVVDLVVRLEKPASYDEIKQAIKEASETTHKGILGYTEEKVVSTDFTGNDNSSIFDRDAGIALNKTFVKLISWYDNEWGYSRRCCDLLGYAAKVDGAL
T1 sequence (Q01982 whole entry): as above

SMILES: C=CC1=C(C)c2cc3[nH]c(cc4nc(cc5[nH]c(cc1n2)c(C)c5CCC(=O)O)C(CCC(=O)O)=C4C)c(C)c3C=C.[Fe+3] [hemin]
- growth of P. chrysosporium (P. chrysosporium; 1.0 μM hemin added to culture medium in the dark (data not shown)): completely shut down
- growth of P. chrysosporium (P. chrysosporium; exogenous addition of hemin at sub-μM concentrations): completely shut down
- pKi [1]: 6.70
- TMB-oxidizing ability of heme (PcGAPDH): suppressed
- inhibitory pattern (steady-state analysis) ([2]; GAP3 as variable substrate): mixed type
- pKi ([2]; pH 7.6, 5 mM NAD+, 0.6–2 mM GAP3, 0–2.5 μM hemin, read-out: Ki (inhibition constant from secondary plot)): 6.00
